Results as given in US20090258385A1, “METHOD OF ANALYZING CELLS BY FLOW CYTOMETRY, USE OF AN ANTIOXIDANT AND/OR FREE RADICAL-SCAVENGING AGENT IN SUCH A METHOD AND INCUBATION BUFFER COMPRISING AN ANTIOXIDANT AND/OR FREE RADICAL-SCAVENGING AGENT” (Hopitaux de Paris, priority 2008, published 2009).

What was measured:
[1] = test system: lymphocytes labeled with anti-CD45 antibody conjugated with APC tandem; assay: percentage of decoupling of APC tandem on immunolabeled lymphocytes by flow cytometry; assay type: cell-based, human
Protocol: The positivity threshold was determined in the APC channel at the time T0 and related to the time T30. The percentage of “decoupled” cells was expressed as the ratio of the total number of both APC- and APC tandem-positive cells to the total APC tandem-positive lymphocytes.

[2] = test system: monocytes labeled with anti-CD45 antibody conjugated with APC tandem; assay: percentage of decoupling of APC tandem on immunolabeled monocytes by flow cytometry; assay type: cell-based, human
Excerpt: (§1) The terms “percentage of decoupling”, “% decoupling”, “% decoupling APC vs APC-Cy7”, “% decoupling APC vs APC-H7” are used in the preceding text and in the text which follows and in the accompanying figures to denote the ratio:
(§2) [Number of cells which, although having been labeled with an APC tandem, emit fluorescence into the APC channel (and not into the channel of the APC tandem used)]/[total number of cells which have been labeled with the APC tandem, regardless of the channel into which they emit],
(§3) this ratio being multiplied by 100.
(§4) For each immunolabeling experiment, the cells were mixed and subjected to flow cytometry analysis on a Becton Dickinson FACSCanto II apparatus. From 10,000 to 50,000 events were acquired per test. The singlet cells were selected by a commonly used cell sorting procedure: intersection of the three windows (P1, P2 and P3) of the biparametric histograms.
(§5) For each type of cells, the percentage of decoupling was calculated as previously described using the BD […] software.
(§6) The results are represented in FIGS. 25 and 26.

[3] = test system: neutrophilic polynuclear cells labeled with anti-CD45 antibody conjugated with APC tandem; assay: percentage of decoupling of APC tandem on immunolabeled neutrophilic polynuclear cells by flow cytometry; assay type: cell-based, human
Excerpt: as §1, §2, §3, §4, §5, §6

[4] = decoupling / signal impairment of APC tandem attached to beads (no cells)
Excerpt: For that, they analyzed the stability of the APC tandem fluorochromes attached to lymphocytes and compared it to the stability of these same APC tandems attached to beads. This comparison makes it possible to determine whether or not it is the APC tandem which is degraded, regardless of the context in which it is used, or if the APC tandem is only degraded in the presence of cells.
The beads used in these experiments were beads Compbeads® from Becton Dickinson.
The lymphocytes, like the beads, were labeled with anti-CD45 antibodies conjugated with the APC-Cy7 tandem fluorochrome or with the APC-H7 tandem fluorochrome.

monocytes = test system: monocytes
Protocol: (§7) Aliquots of human peripheral blood (containing 500,000 leukocytes) were incubated in the lysis buffer and then washed three times with 1×PBS supplemented with 2.5% FBS. The cells (500,000) were then immuno-labeled with 5 μl of each of the desired antibodies conjugated either with the desired APC tandem or with APC alone in 100 μl of incubation buffer for 20 min at room temperature, and washed three times with the PBS/FBS solution and resuspended in 200 μl of PBS/FBS solution.
(§8) The dead cells were labeled for their exclusion during analysis of the data acquired by flow cytometry using the intercalating agent 7-aminoactinomycin-D (7-AAD) from SIGMA-ALDRICH.

[5] = test system: neutrophilic polynuclear cells
Protocol: as §7, §8

lymphocytes = assay: viability and morphology of lymphocytes; assay type: cell-based, human
cells = assay: toxicity to cells at the concentrations used; assay type: cell-based
[6] = neutrophilic polynuclear cells, H2O2

## OO [H2O2, hydrogen peroxide]
[1]; anti-CD45 APC-Cy7, 0.01 mM H2O2, 20 to 60 minutes
  effect on percentage of decoupling: does not modify
[1]; anti-CD45 APC-Cy7, 0.1 mM H2O2, 20 to 60 minutes
  effect on percentage of decoupling: increased
[2]; H2O2
  effect on decoupling compared with lymphocytes: comparable role
[3]; [6]
  effect on decoupling compared with lymphocytes: comparable role
[4]; beads, over time, H2O2
  decoupling of antibodies conjugated with APC-Cy7 attached to beads: could induce the decoupling
monocytes; H2O2
  effect on viability of the cells: without any effect on the viability
[5]; [6]
  effect on viability of the cells: without any effect on the viability

## [N-]=[N+]=[N-] [NaN3, sodium azide]
monocytes; NaN3
  effect on cell viability: without affecting cell viability
[5]; neutrophilic polynuclear leukocytes, NaN3
  effect on cell viability: without affecting cell viability

## O=C1O[C@H]([C@@H](O)CO)C(O)=C1O [vitamin C, L-ascorbic acid]
[1]; anti-CD45 APC-Cy7, 1 mM vitamin C, room temperature, monitored 1 hour
  effect on percentage of decoupling over time: strongly inhibits
[1]; vitamin C 0.1 mM
  effect on percentage of decoupling: only a reduced effect
[2]
  concentration at which a sufficient decrease of the percentage of decoupling appears: 1 mM
  concentration up to which the decrease of decoupling exists: ≤ 10 mM
[3]; neutrophilic polynuclear cells
  concentration at which a sufficient decrease of the percentage of decoupling is obtained: 0.25 mM
  concentration up to which the decrease of decoupling exists: ≤ 10 mM
[3]; neutrophilic polynuclear leukocytes, anti-CD45 APC-Cy7, 1 mM vitamin C, room temperature, monitored 1 hour
  effect on percentage of decoupling over time: strongly inhibits
[4]; beads Compbeads, H2O2 0 to 1 mM, 1 mM vitamin C
  effect on impairment of the APC tandem signal caused by H2O2: blocks the impairment of the signal
lymphocytes
  concentration above which morphology and viability are modified: above 10 mM
monocytes
  concentration above which viability and morphology are modified: > 10 mM
[5]; neutrophilic polynuclear cells
  concentration above which cells begin to undergo a decrease in viability: Above 10 mM
  concentration above which cells begin to undergo morphological impairment: Above 4 mM
cells
  toxicity to cells: not toxic to cells
